Reference: ChEMBL document CHEMBL1146452, “Saponins from the flower buds of Buddleja officinalis” (J Nat Prod, 2004)

System: HL-60
Test: Cytotoxicity against human HL60 cells by MTT assay
Format: functional, cell-based

SMILES	IC50
C[C@@H]1O[C@@H](O[C@H]2[C@H](O)[C@@H](O)[C@H](O[C@H]3[C@@H](O)[C@@H](C)O[C@@H](O[C@H]4CC[C@@]5(C)[C@@H](CC[C@]6(C)[C@@H]5C=CC5=C7CC(C)(C)CC[C@]7(CO)[C@@H](O)C[C@]56C)[C@]4(C)CO)[C@@H]3O[C@@H]3O[C@H](CO)[C@@H](O)[C@H](O)[C@H]3O)O[C@@H]2CO)[C@H](O)[C@H](O)[C@H]1O [MIMENGOSIDE C]	23.2 µM
C[C@H]1O[C@@H](O[C@H]2CC[C@@]3(C)[C@@H](CC[C@]4(C)[C@@H]3C=CC3=C5CC(C)(C)CC[C@]5(CO)[C@@H](O)C[C@]34C)[C@]2(C)CO)[C@H](O)[C@@H](O[C@@H]2O[C@H](CO)[C@@H](O[C@@H]3OC[C@@H](O)[C@H](O)[C@H]3O)[C@H](O)[C@H]2O)[C@H]1O [MIMENGOSIDE D]	26.7 µM
C[C@@H]1O[C@@H](O[C@H]2[C@H](O)[C@@H](O)[C@H](O[C@H]3[C@@H](O)[C@@H](C)O[C@@H](O[C@H]4CC[C@]5(C)C6=CC=C7[C@@H]8CC(C)(C)CC[C@]8(CO)[C@@H](O)C[C@@]7(C)[C@]6(C)CC[C@H]5[C@]4(C)CO)[C@@H]3O[C@@H]3O[C@H](CO)[C@@H](O)[C@H](O)[C@H]3O)O[C@@H]2CO)[C@H](O)[C@H](O)[C@H]1O [MIMENGOSIDE E]	16.8 µM
C[C@H]1O[C@@H](O[C@H]2CC[C@]3(C)C4=CC=C5[C@@H]6CC(C)(C)CC[C@]6(CO)[C@@H](O)C[C@@]5(C)[C@]4(C)CC[C@H]3[C@]2(C)CO)[C@H](O)[C@@H](O[C@@H]2O[C@H](CO)[C@@H](O[C@@H]3OC[C@@H](O)[C@H](O)[C@H]3O)[C@H](O)[C@H]2O)[C@H]1O [MIMENGOSIDE F]	22.7 µM
